Reference: patent US9266921B2, “PGC-1α-modulating peptides” (Lipotec, S.A., priority 2011, dated 2016)

System: human PGC-1α promoter
Experiment: Modulation of the human PGC-1α promoter activity (luciferase reporter, Hep G2)
Assay type: cell-based
Settings: Hep G2 transfected with luciferase under human PGC-1α promoter; peptide 0.5 mg/mL, 24 hours; normalized to carrier = 100%
Description: The modulation capacity of the promoter of human PGC-1α is evaluated by the peptides in the invention in the hepatocellular Hep G2 carcinoma cell line transfected with the luciferase gene under the regulation of the human PGC-1α promoter. The cells are seeded at a density of 20,000 cells/25 cm^2 plate) and incubated for 24 hours in RPMI-1640 complete medium, after which the peptides of the invention are added at 0.5 mg/mL and are incubated for another 24 hours. The RPMI-1640 complete medium (carrier) is used as a negative control. The measurement of the promoter's activity is carried out using the Steady-Glo® Luciferase Assay System (PROMEGA) kit following the manufacturer's instructions. The luminescence values are read on a luminometer […] and the activity of the promoter is determined, which is normalized with regards to the values of the negative control.

| Substance | Activity of the PGC-1α promoter (%) |
| --- | --- |
| Ac-L-His-L-Ile-L-Tyr-L-Val-L-Ala-L-Val-NH2 (Ac-HIYVAV-NH2) [Ac-SEQ ID NO. 25-NH2] | 76 |
| Ac-L-His-L-Ile-L-Tyr-L-Val-L-Arg-L-Thr-NH2 (Ac-HIYVRT-NH2) [Ac-SEQ ID NO. 10-NH2] | 115 |
| Ac-L-His-L-Ile-L-Tyr-L-Val-L-Arg-L-Val-NH2 (Ac-HIYVRV-NH2) [Ac-SEQ ID NO. 33-NH2] | 117 |
| Ac-L-His-L-Ile-L-Val-L-Val-L-Ala-L-Thr-NH2 (Ac-HIVVAT-NH2) [Ac-SEQ ID NO. 6-NH2] | 72 |
| Ac-L-His-L-Ile-L-Val-L-Val-L-Ala-L-Val-NH2 (Ac-HIVVAV-NH2) [Ac-SEQ ID NO. 29-NH2] | 81 |
| Ac-L-His-L-Ile-L-Val-L-Val-L-Arg-L-Val-NH2 (Ac-HIVVRV-NH2) [Ac-SEQ ID NO. 37-NH2] | 118 |
| Ac-L-His-L-Val-L-Tyr-L-Val-Gly-L-Val-NH2 (Ac-HVYVGV-NH2) [Ac-SEQ ID NO. 43-NH2] | 75 |
| Ac-L-His-L-Val-L-Tyr-L-Val-L-Ala-L-Thr-NH2 (Ac-HVYVAT-NH2) [Ac-SEQ ID NO. 4-NH2] | 77 |
| Ac-L-His-L-Val-L-Tyr-L-Val-L-Ala-L-Val-NH2 (Ac-HVYVAV-NH2) [Ac-SEQ ID NO. 27-NH2] | 42 |
| Ac-L-His-L-Val-L-Tyr-L-Val-L-Arg-L-Val-NH2 (Ac-HVYVRV-NH2) [Ac-SEQ ID NO. 35-NH2] | 132 |
| Ac-L-His-L-Val-L-Val-L-Val-L-Ala-L-Thr-NH2 (Ac-HVVVAT-NH2) [Ac-SEQ ID NO. 8-NH2] | 89 |
| Ac-L-His-L-Val-L-Val-L-Val-L-Arg-L-Val-NH2 (Ac-HVVVRV-NH2) [Ac-SEQ ID NO. 39-NH2] | 186 |
| Ac-L-Ser-L-Ile-L-Tyr-L-Val-Gly-L-Thr-NH2 (Ac-SIYVGT-NH2) [Ac-SEQ ID NO. 18-NH2] | 64 |
| Ac-L-Ser-L-Ile-L-Tyr-L-Val-Gly-L-Val-NH2 (Ac-SIYVGV-NH2) [Ac-SEQ ID NO. 42-NH2] | 64 |
| Ac-L-Ser-L-Ile-L-Tyr-L-Val-L-Ala-L-Val-NH2 (Ac-SIYVAV-NH2) [Ac-SEQ ID NO. 26-NH2] | 40 |
| Ac-L-Ser-L-Ile-L-Tyr-L-Val-L-Arg-L-Val-NH2 (Ac-SIYVRV-NH2) [Ac-SEQ ID NO. 34-NH2] | 134 |
| Ac-L-Ser-L-Ile-L-Val-L-Val-L-Ala-L-Thr-NH2 (Ac-SIVVAT-NH2) [Ac-SEQ ID NO. 7-NH2] | 145 |
| Ac-L-Ser-L-Ile-L-Val-L-Val-L-Ala-L-Val-NH2 (Ac-SIVVAV-NH2) [Ac-SEQ ID NO. 30-NH2] | 120 |
| Ac-L-Ser-L-Ile-L-Val-L-Val-L-Arg-L-Thr-NH2 (Ac-SIVVRT-NH2) [Ac-SEQ ID NO. 15-NH2] | 150 |
| Ac-L-Ser-L-Ile-L-Val-L-Val-L-Arg-L-Val-NH2 (Ac-SIVVRV-NH2) [Ac-SEQ ID NO. 38-NH2] | 180 |
| Ac-L-Ser-L-Val-L-Tyr-L-Val-Gly-L-Thr-NH2 (Ac-SVYVGT-NH2) [Ac-SEQ ID NO. 20-NH2] | 76 |
| Ac-L-Ser-L-Val-L-Tyr-L-Val-Gly-L-Val-NH2 (Ac-SVYVGV-NH2) [Ac-SEQ ID NO. 44-NH2] | 67 |
| Ac-L-Ser-L-Val-L-Tyr-L-Val-L-Arg-L-Val-NH2 (Ac-SVYVRV-NH2) [Ac-SEQ ID NO. 36-NH2] | 136 |
| Ac-L-Ser-L-Val-L-Val-L-Val-Gly-L-Thr-NH2 (Ac-SVVVGT-NH2) [Ac-SEQ ID NO. 24-NH2] | 90 |
| Ac-L-Ser-L-Val-L-Val-L-Val-L-Ala-L-Thr-NH2 (Ac-SVVVAT-NH2) [Ac-SEQ ID NO. 9-NH2] | 62 |
